# Results published in PMC10578352, “Identification of a Protein Arginine Methyltransferase 7 (PRMT7)/Protein Arginine Methyltransferase 9 (PRMT9) Inhibitor” (Journal of Medicinal Chemistry, 2023).
# Columns and labels:
# CePRMT7 = target: T1, CePRMT7 (Caenorhabditis elegans, UniProt Q9XW42); assay: Radioisotope-based assay (SDS-PAGE, fluorography, densitometry), CePRMT7; assay type: biochemical; conditions: substrate HsH2B, 15 °C, read-out: % CePRMT7 residual activity
# T1 construct: made in house; host or cells: E. coli
# Method: (§1) Based on these outcomes, we resolved to explore the effect on the capability to inhibit PRMT9 enzymatic activity of further reduction of the distance between the pharmacophoric moieties. […] After the experiment was repeated with 100, 250, and 500 μM concentrations of each inhibitor, half inhibition was observed only at a concentration of roughly 250 μM (Figure 4d).
# (§2) […]. The experiments were performed as reported in the Experimental procedures section. GST-HsPRMT9 (a) and GST-HsPRMT7 (b) were incubated with human GST-SF3B2 (401–550) peptide or recombinant HsH2B, respectively (1 μg of enzyme, 5 μg of substrate), 0.14 μM [^3H]SAM, and the indicated concentrations of tested compounds at the corresponding optimal reaction temperature (37 °C for HsPRMT9, 15 °C for HsPRMT7). C. elegans GST-tagged enzymes PRMT9 (c) and PRMT7 (d) were incubated with GST-CeSFTB-2 (99–248) fragment or recombinant HsH2B, respectively (1 μg of enzyme, 5 μg of substrate), 0.14 μM [^3H]SAM, and the indicated concentrations of tested compounds at the corresponding optimal reaction temperature (25 °C for CePRMT9, 15 °C for CePRMT7). After SDS-PAGE, the gels were treated as previously described[48] and densitometry analysis was done using ImageJ software, and data was plotted as normalized activity to the no inhibitor controls.
# (§3) Human PRMT9, C. elegans PRMT9, human PRMT7, and C. elegans PRMT7 plasmids were sequenced, expressed in E. coli as GST-fusion proteins, and purified as previously described.[48] Substrates were also sequenced and purified as described [human GST-SF3B2 (401–550);[13]C. elegans SFTB-2;[48] human histone H2B (New England Biolabs, M2505S)]. Xenopus laevis histone H2B was expressed in E. coli and purified similarly to what was previously reported by Luger et al.[72]
# (§4) Reactions consisting of approximately 1 μg of enzyme (human or C. elegans GST-tagged enzymes PRMT9 and PRMT7), reacted with approximately 5 μg of substrate [for human PRMT9, human GST-SF3B2 401–550 fragment; C. elegans PRMT9 with C. elegans GST-SFTB-2 (99–248) fragment, or recombinant human histone H2B from New England Biolabs (M2505S)], were incubated for the indicated time in reaction buffer {50 mM potassium HEPES buffer, 10 mM NaCl, 1 mM dithiothreitol (DTT), pH 8.0 with 0.7 μM S-adenosyl-L-[methyl-^3H]methionine (^3H-AdoMet, PerkinElmer Life Sciences, 82.7 Ci/mmol, 0.55 mCi/mL in 10 mM H2SO4/EtOH [9:1 (v/v)])} in a final reaction volume of 60 μL. Each reaction was incubated at the corresponding optimal reaction temperature (37 °C for human PRMT9, 25 °C for C. elegans PRMT9, and 15 °C for C. elegans and human PRMT7 enzymes. MTA was dissolved in water, and a wavelength scan was taken to determine the final concentration using the extinction coefficient. The final concentrations used are indicated in the figure legends. […]. EML734, EML736, and EML709 were also dissolved in DMSO, and further dilutions were made in DMSO for the working stocks. For controls, no inhibitor reactions were created by the addition of the respective solvent (water for MTA and DMSO for EPZ015666 and EML inhibitors).
# (§5) After the reaction incubations with the various concentrations of inhibitors, the reactions were quenched by adding 0.2 volume of 5× SDS sample loading buffer, and subsequently, the reactions were run on a 12.6% polyacrylamide Tris gel. To collect the radioactive signal, the gels were then treated in the same way as previously described.[48]
# (§6) After various exposures were collected to ensure linear detection, densitometry analysis was done using ImageJ software, and data were plotted as normalized activity to the no inhibitor controls.
# GST-HsPRMT9 = target: T2, GST-HsPRMT9 (Homo sapiens, UniProt Q6P2P2); assay: Radioisotope-based assay (SDS-PAGE, fluorography, densitometry), HsPRMT9; assay type: biochemical; conditions: substrate GST-SF3B2 (401–550), 37 °C, read-out: % HsPRMT9 residual activity
# T2 construct: made in house; host or cells: E. coli
# T2 sequence (Q6P2P2 1-845): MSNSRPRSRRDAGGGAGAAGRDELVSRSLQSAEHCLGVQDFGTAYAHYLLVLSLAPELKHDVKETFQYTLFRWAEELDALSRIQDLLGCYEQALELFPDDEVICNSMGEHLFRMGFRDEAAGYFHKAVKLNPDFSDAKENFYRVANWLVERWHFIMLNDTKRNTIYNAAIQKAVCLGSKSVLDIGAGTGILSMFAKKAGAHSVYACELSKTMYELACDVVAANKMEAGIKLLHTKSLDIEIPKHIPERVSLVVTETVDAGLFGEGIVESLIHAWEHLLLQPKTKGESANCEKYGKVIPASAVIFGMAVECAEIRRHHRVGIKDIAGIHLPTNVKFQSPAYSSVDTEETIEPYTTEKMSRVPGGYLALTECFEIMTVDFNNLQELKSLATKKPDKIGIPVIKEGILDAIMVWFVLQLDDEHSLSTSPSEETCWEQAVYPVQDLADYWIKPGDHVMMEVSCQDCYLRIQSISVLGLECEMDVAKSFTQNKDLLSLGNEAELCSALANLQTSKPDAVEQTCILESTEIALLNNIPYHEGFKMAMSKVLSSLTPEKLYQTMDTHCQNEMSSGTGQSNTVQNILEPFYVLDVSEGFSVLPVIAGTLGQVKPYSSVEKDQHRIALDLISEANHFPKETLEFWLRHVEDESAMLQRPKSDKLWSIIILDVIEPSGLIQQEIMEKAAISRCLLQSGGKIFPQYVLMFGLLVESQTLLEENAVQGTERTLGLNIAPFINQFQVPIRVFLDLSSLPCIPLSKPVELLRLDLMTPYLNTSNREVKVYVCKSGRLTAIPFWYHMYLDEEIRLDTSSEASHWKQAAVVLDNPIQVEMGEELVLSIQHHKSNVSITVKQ
# Method: as §1, §2, §3, §4, §5, §6
# T1 sequence (Q9XW42 whole entry): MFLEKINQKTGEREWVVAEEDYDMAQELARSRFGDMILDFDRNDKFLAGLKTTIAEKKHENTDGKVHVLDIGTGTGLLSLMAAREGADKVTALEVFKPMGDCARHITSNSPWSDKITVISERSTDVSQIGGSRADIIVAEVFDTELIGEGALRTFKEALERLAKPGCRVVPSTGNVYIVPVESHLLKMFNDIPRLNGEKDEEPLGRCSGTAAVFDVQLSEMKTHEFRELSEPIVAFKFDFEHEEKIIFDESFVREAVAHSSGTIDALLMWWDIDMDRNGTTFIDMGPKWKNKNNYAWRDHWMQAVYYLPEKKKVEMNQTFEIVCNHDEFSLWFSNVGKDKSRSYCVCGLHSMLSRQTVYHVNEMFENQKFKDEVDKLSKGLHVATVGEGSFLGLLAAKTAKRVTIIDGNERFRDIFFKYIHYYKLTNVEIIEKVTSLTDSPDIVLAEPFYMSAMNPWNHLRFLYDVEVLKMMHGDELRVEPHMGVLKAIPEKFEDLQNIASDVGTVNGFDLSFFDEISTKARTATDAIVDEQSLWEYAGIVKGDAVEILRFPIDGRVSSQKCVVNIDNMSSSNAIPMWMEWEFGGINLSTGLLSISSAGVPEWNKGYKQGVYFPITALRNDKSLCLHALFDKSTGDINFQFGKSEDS
smiles,measurement,setting,value
COC(=O)c1cc(O)c2cc(NC(=O)NCCCCCNC(=N)NC[C@H]3O[C@@H](n4cnc5c(N)ncnc54)[C@H](O)[C@@H]3O)ccc2c1 [1c],remaining activity at 100 µM,CePRMT7,26.1%
same,remaining activity at 250 µM,CePRMT7,6.92%
same,remaining activity at 500 µM,CePRMT7,2.32%
same,remaining activity at 5 µM,GST-HsPRMT9,32%
same,remaining activity at 25 µM,GST-HsPRMT9,6.5%
same,remaining activity at 50 µM,GST-HsPRMT9,0.52%
same,remaining activity at 100 µM,GST-HsPRMT9,0.34%
COC(=O)c1cc(O)c2cc(NC(=O)NCCCNC(=N)NC[C@H]3O[C@@H](n4cnc5c(N)ncnc54)[C@H](O)[C@@H]3O)ccc2c1 [1a],remaining activity at 100 µM,CePRMT7,19.6%
same,remaining activity at 250 µM,CePRMT7,12.5%
same,remaining activity at 500 µM,CePRMT7,0.92%
same,remaining activity at 5 µM,GST-HsPRMT9,30.4%
same,remaining activity at 25 µM,GST-HsPRMT9,3.42%
same,remaining activity at 50 µM,GST-HsPRMT9,1.37%
same,remaining activity at 100 µM,GST-HsPRMT9,0.3%
COC(=O)c1cc(O)c2cc(NC(=O)NCCCCNC(=N)NC[C@H]3O[C@@H](n4cnc5c(N)ncnc54)[C@H](O)[C@@H]3O)ccc2c1 [1b],remaining activity at 100 µM,CePRMT7,34.8%
same,remaining activity at 250 µM,CePRMT7,8.62%
same,remaining activity at 500 µM,CePRMT7,5.19%
same,remaining activity at 5 µM,GST-HsPRMT9,46%
same,remaining activity at 25 µM,GST-HsPRMT9,13.8%
same,remaining activity at 50 µM,GST-HsPRMT9,6.15%
same,remaining activity at 100 µM,GST-HsPRMT9,1.64%
